assay: recombinant UMI read abundance after kanamycin selection (control-corrected) (log10(CPM+1)); higher = more efficient recombination; extreme values may be limits of the assay; sequences stand for … in AGTGCAGAGAAAATCGGCCAGTTTTCTCTGCCTGCAGTCCGCATGCCGTGGGACCCCTTGGGTTCTAACCTGTTGCCTAGATTTATGCAGCGGACTGCCTTTCTCCCAAAGTGATAAACCGG…AGGTTGGTTTCACT; site = the 11-nt donor
Procedure, shortened: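 Each donor and donor-binding-loop pair was tracked by a 12-nt UMI on a plasmid carrying a promoterless kanamycin gene. With a second plasmid supplying a fixed target and T7-inducible IS621 bridge recombinase, the pool was plated in Escherichia coli on IPTG (0.07 mM) plus kanamycin or unselected. Sequencing of recombinant UMIs across the donor–target junction gave counts expressed as log10(CPM+1) after replicate averaging and control-derived scaling.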
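Also: IS621 bridge recombinase in Escherichia coli cells against a fixed T5 target plasmid.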

Point of comparison: “CCCTAGCCATGGACCGGTTTTCCCGGTAATCCGTATTTGAC (site CCCTAGCCTGT)”, “recombinant UMI read abundance (log10)” value 0. Against it:
- CCCTACACATGGACCGGTTTTCCCGGTAATCCGTATTTGCT (site CTCTACACTAG) — higher, 0.347
- CCCTAGACATGGACCGGTTTTCCCGGTAATCCGTATTTGCC (site CCCTAGACTGG) — higher, 1.04
- CCCTAGACATGGACCGGTTTTCCCGGTAATCCGTATTTGCC (site CCCTAGCCTGG) — the same, 0
- CCCTAGACATGGACCGGTTTTCCCGGTAATCCGTATTTGCC (site CCCTAGGCTGG) — higher, 1.18
- CCCTAGACATGGACCGGTTTTCCCGGTAATCCGTATTTGCC (site CCCTAGTCTGG) — the same, 0
- CCCTAGACATGGACCGGTTTTCCCGGTAATCCGTATTTGCT (site CCCTAGACTAG) — higher, 0.956
- CCCTAGCCATGGACCGGTTTTCCCGGTAATCCGTATTTGAC (site CCCTAGCCTGA) — the same, 0
- CCCTAGCCATGGACCGGTTTTCCCGGTAATCCGTATTTGAC (site CCCTAGCCTGC) — the same, 0
- CCCTAGCCATGGACCGGTTTTCCCGGTAATCCGTATTTGAC (site CCCTAGCCTGG) — the same, 0
- CCCTAGCCATGGACCGGTTTTCCCGGTAATCCGTATTTGCA (site CCCTAGCCTAG) — the same, 0
- CCCTAGCCATGGACCGGTTTTCCCGGTAATCCGTATTTGCA (site CCCTAGCCTCG) — the same, 0
- CCCTAGCCATGGACCGGTTTTCCCGGTAATCCGTATTTGCA (site CCCTAGCCTGG) — the same, 0
- CCCTAGCCATGGACCGGTTTTCCCGGTAATCCGTATTTGCA (site CCCTAGCCTTG) — the same, 0
- CCCTAGCCATGGACCGGTTTTCCCGGTAATCCGTATTTGCG (site CCCTAGCCTAG) — the same, 0
- CCCTAGCCATGGACCGGTTTTCCCGGTAATCCGTATTTGCG (site CCCTAGCCTCG) — within 0.2 log units, 0.0131
- CCCTAGCCATGGACCGGTTTTCCCGGTAATCCGTATTTGCG (site CCCTAGCCTGG) — the same, 0
- CCCTAGCCATGGACCGGTTTTCCCGGTAATCCGTATTTGCG (site CCCTAGCCTTG) — the same, 0
- CCCTAGCCATGGACCGGTTTTCCCGGTAATCCGTATTTGCT (site CCCTAGCCTAG) — the same, 0
- CCCTAGCCATGGACCGGTTTTCCCGGTAATCCGTATTTGCT (site CCCTAGCCTCG) — the same, 0
- CCCTAGCCATGGACCGGTTTTCCCGGTAATCCGTATTTGCT (site CCCTAGCCTGG) — the same, 0
- CCCTAGCCATGGACCGGTTTTCCCGGTAATCCGTATTTGCT (site CCCTAGCCTTG) — the same, 0
- CCCTCAACATGGACCGGTTTTCCCGGTAATCCGTATTTGAT (site CCCTCAACTAT) — within 0.2 log units, 0.00694
- CCCTCAACATGGACCGGTTTTCCCGGTAATCCGTATTTGGG (site CCCTCAACTCC) — within 0.2 log units, 0.0112
- CCCTCCTCATGGACCGGTTTTCCCGGTAATCCGTATTTGAG (site CCCTCCTCTCT) — higher, 0.256
- CCCTCCTCATGGACCGGTTTTCCCGGTAATCCGTATTTGGG (site CCCTACTCTCC) — within 0.2 log units, 0.0129
- CCCTCCTCATGGACCGGTTTTCCCGGTAATCCGTATTTGGG (site CCCTCCTCTCC) — higher, 0.487
- CCCTCCTCATGGACCGGTTTTCCCGGTAATCCGTATTTGGG (site CCCTGCTCTCC) — the same, 0
- CCCTCCTCATGGACCGGTTTTCCCGGTAATCCGTATTTGGG (site CCCTTCTCTCC) — within 0.2 log units, 0.00367
- CCCTGATCATGGACCGGTTTTCCCGGTAATCCGTATTTGAG (site CCCTGATCTCT) — higher, 0.248
- CCCTTATCATGGACCGGTTTTCCCGGTAATCCGTATTTGGG (site CCCTTATCTCC) — within 0.2 log units, 0.162
- CCCTTATCATGGACCGGTTTTCCCGGTAATCCGTATTTGGG (site CCCTTCTCTCC) — within 0.2 log units, 0.0199
- CCCTTATCATGGACCGGTTTTCCCGGTAATCCGTATTTGGG (site CCCTTGTCTCC) — within 0.2 log units, 0.0199
- CCCTTATCATGGACCGGTTTTCCCGGTAATCCGTATTTGGG (site CCCTTTTCTCC) — the same, 0
- CCCTTCTCATGGACCGGTTTTCCCGGTAATCCGTATTTGGT (site CCCTTCTCTAC) — higher, 1.32
- CCCTTCTCATGGACCGGTTTTCCCGGTAATCCGTATTTGGT (site CCCTTCTCTCC) — within 0.2 log units, 0.182
- CCCTTCTCATGGACCGGTTTTCCCGGTAATCCGTATTTGGT (site CCCTTCTCTGC) — the same, 0

Source: the supplement of paper PMC11208160
